Results: article PMC6715247 (PLoS Neglected Tropical Diseases, 2019)

Assays:
[1] = system: E. histolytica trophozoite; set-up: method as in PMID 30087858; settings: ref [18], cited from earlier work
[2] = system: Human foreskin fibroblast (HFF) cells; experiment: WST-1-based cytotoxicity assay
Protocol: Human foreskin fibroblast (HFF) cells (purchased from ATCC) were routinely maintained in DMEM supplemented with 10% fetal bovine serum, 100 units/ml penicillin, […] and 1% GlutaMAX™-I (Thermo Fisher Scientific, Waltham, MA). A WST-1-based cytotoxicity assay was performed as previously described. In detail, HFF cells were plated at 1.0×10^4 cells/100 μL medium in each well of a 96-well culture plate, and incubated overnight at 37°C in a 5% CO2 atmosphere to allow cells to adhere to the wells. […] Numbers of viable cells were then assessed using the Premix WST-1 Cell Proliferation Assay System (Takara). […] DMSO was added at 1% as a negative control whereas ionomycin was added at 30 μM as a positive control. As a blank, the above culture medium was used in place of the solutions added.

rEhAPSK = rEhAPSK (Entamoeba histolytica, UniProt C4LUW9); experiment: 96-well plate-based in vitro APSK activity assay (coupling assay, NADH decrease); assay type: biochemical; settings: 10 μM compound, 1% DMSO
Chain of rEhAPSK (C4LUW9 entry or part of it): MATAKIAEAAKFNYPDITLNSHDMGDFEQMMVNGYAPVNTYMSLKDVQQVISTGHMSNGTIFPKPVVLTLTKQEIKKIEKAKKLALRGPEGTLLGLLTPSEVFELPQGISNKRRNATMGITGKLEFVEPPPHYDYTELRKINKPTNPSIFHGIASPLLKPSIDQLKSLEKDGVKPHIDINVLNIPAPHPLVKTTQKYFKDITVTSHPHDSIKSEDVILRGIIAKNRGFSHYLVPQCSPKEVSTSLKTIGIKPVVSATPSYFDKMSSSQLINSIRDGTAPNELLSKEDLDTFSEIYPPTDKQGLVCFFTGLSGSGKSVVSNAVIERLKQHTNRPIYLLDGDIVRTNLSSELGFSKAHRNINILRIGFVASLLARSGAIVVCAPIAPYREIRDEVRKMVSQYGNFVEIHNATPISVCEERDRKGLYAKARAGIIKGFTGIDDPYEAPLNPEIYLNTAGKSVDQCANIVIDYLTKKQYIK
Protocol: (§1) A coupling assay to measure APSK activity was performed as described except a 96-well plate was used. Briefly, each well contained 100 μL reaction mixture, which consisted of 90 μL coupling solution and 10 μL of either compound solution (see below) or 10% DMSO. […] The coupling solution was 100 mM Tris/HCl (pH 8.0), 1 mM MgCl2, 1 mM KCl, 5 mM Mg2ATP, 1 mM NADH, 1 mM PEP, 1 U NP1, 3.5 U PK, 5.0 U LDH, and APSK (≤3 μL). […] As controls, in place of purified APSK solution (rEhAPSK or rHsAPSK), 3 μL of a blank [50 mM Tris/HCl buffer (pH 8.0)], a solvent (elution buffer), a mock (rEhSF2), or denatured APSK suspensions obtained by heat-treatment, were added to the coupling solution. The activity of each sample was calculated after removing the baseline value of the blank control.
(§2) For the inhibition assay, 2 μL of each stock solution, which were distributed in a 96-well plate, were transferred to a new plate to make a replicate. After adding 18 μL deionized water to each well and mixing, 10 μL of each diluted solution (100 μM compound solution) was again transferred into a new 96-well plate to make a replicate. Then 90 μL of the coupling solution prepared above was dispensed into each well containing the previously added 10 μL of 100 μM compound solution. As a solvent control, 10% DMSO solution (vol/vol-deionized water) was used in place of compound solution. The final concentrations of each compound and DMSO in a well were 10 μM and 1% (vol/vol), respectively. The assays were performed independently three times, and data are shown as the mean with SD.
One millimolar stock solutions used were either thawed in a replicate (96-well plate) prepared in [18] […] Subsequently, 3.4 μL of the 1 mM and each diluted stock solution were dispensed into wells of a 96-well culture plate, containing 30.6 μL deionized water and mixed well by pipetting. Ten microliters of all resulting solutions were then dispensed into wells of a 96-well plate to make triplicates and then used as described for the above inhibition assay. 10% DMSO solution was used as an inhibitor-free control. Note that the final DMSO concentration in any well was 1% (vol/vol).
(§3) In all assays, prepared mixtures in a plate were mixed on a vibrating table equipped with either an EnVision or ARVO plate reader (PerkinElmer) before starting the reaction.

recombinant EhTrxR = system: recombinant EhTrxR; set-up: method as in PMID 22610278, PMID 26876147; settings: ref [19], [59]; cited from earlier work
[3] = target: T1, rHsAPSK (recombinant APSK domain of HsPAPSS1) (Homo sapiens, UniProt O43252); experiment: 96-well plate-based in vitro APSK activity assay (coupling assay, NADH decrease); assay type: biochemical; settings: 10 μM compound, 1% DMSO
T1 construct: APSK domains of HsPAPSS1 (Ala^25—Pro^227) and -2 (Ser^15—Pro^217); His tag (pCold-I vector); made in house; host or cells: E. coli BL21(DE3)
T1 sequence (O43252 25-227): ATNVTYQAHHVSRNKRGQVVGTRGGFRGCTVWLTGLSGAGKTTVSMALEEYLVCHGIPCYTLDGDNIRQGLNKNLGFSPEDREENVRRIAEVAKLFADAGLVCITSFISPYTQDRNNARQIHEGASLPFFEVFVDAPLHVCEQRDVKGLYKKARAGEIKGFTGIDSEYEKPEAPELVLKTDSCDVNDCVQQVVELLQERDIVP
Protocol: as §1, §2, §3

[4] = system: E. invadens cyst formation; experiment: E. invadens cyst formation (encystation) assay (flow cytometry); assay type: cell-based, Entamoeba invadens; settings: compound added at 48 h post-induction (48–72 h)
Protocol: E. histolytica trophozoite proliferation and E. invadens cyst formation assays were performed essentially as described in [18] except that in addition to 0–72 and 48–72 h cyst formation assays, 0–96 and 0–120 h, and 48–96 and 48–120 h assays were also performed.

[5] = system: E. invadens cyst formation; set-up: method as in PMID 30087858; settings: ref [18], cited from earlier work
[6] = system: sulfolipids synthesized in E. histolytica trophozoites; experiment: Metabolic labeling by [35S]-labeled sulfate, sulfolipid synthesis; assay type: cell-based, Entamoeba histolytica; settings: 6 h treatment; A-D-11, A-H-11 6.25-100 μM, E-H-05 0.5-8 μM
Protocol: Metabolic labeling of E. histolytica trophozoites by [^35S]-labeled sulfate was performed essentially as described previously with slight modification. […] Each 10 mM stock solution (in DMSO) of the three commercially sourced compounds was serially diluted by 2-fold decrements with DMSO. The resulting diluted solutions were then added to 0.75 ml cell suspension in BI-S-33 medium at 1/100 (vol/vol). […] Note that DMSO was used as a solvent control at 1%, which was the DMSO concentration in all samples analyzed. [^35S]-labeled sulfate (45 μCi) was added 4 h after the start of treatments and labeled cells were harvested at 6 h. […] Each spot on the TLC plates was quantified using a Fuji imaging analyzer and Multi Gauge 2.2 software (FLA-7000; Fujifilm, Japan). The total cell protein was estimated using a Pierce BCA protein assay kit (Thermo Scientific, Rockford, IL, USA).

auranofin [E-H-05, reference compound]
Effect on trophozoite proliferation ([1]; 10 μM): negative effects | IC50 ([1]; average ± SD, read-out: Trophozoite proliferation IC50): 0.65 ± 0.18 µM | Number of viable HFF cells relative to 1% DMSO control (set as 100%) ([2]; 10 μM, 48 h): < 10% | IC50 ([2]; read-out: Cytotoxicity (HFF) IC50, 48 h exposure, WST-1): 4 ± 1.4 µM | Inhibition of rEhAPSK activity (rEhAPSK): reproducibly inhibited rEhAPSK activity | IC50 (recombinant EhTrxR): 0.4 µM | Inhibition of rHsAPSK activity [3]: none showed any inhibitory activity against HsAPSK | Number of cysts formed at 72 h [4]: did not affected the number of cyst formed at 72 h | Effect on cyst formation ([5]; 10 μM): negative effects | IC50 ([5]; average ± SD): 1.73 ± 0.7 µM | Amount of sulfolipids synthesized [6]: dose-dependently reduced the amount of sulfolipids synthesized
